# Measured values taken from the supplement of paper PMC11919725.
# How the values were obtained:
# [1] = tested on: Jurkat; test: confluency relative to DMSO, 18 h (ratio); higher = more viable
# Method in brief: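 Jurkat cells or primary CD4+/CD8+ T cells, either naive or activated for 48 h with CD3/CD28 Dynabeads, were exposed to compound from 1 nM to 10 µM in log10 steps for 18 h at 37 °C and 5% CO2. Afterwards, 100 µl of each suspension was moved into 96-well plates containing IncuCyte Cytotox Dye and alamarBlue. Phase-contrast images were taken at ×10, five per well, every hour for 3 h. Confluency was derived from these images with the IncuCyte Basic Analyzer, and values are expressed relative to the mean of the control wells.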
# [2] = tested on: Jurkat; test: cytotoxicity relative to DMSO, 18 h (ratio); higher = less cell death (drugs called cytotoxic fall below 1)
# Method in brief: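 Jurkat or primary CD4+/CD8+ T cells (naive, or activated 48 h with CD3/CD28 Dynabeads) were treated 18 h with compound at 1 nM–10 µM (log10 steps) at 37 °C, 5% CO2. Then 100 µl of suspension went into 96-well plates with IncuCyte Cytotox Dye (250 nM final). Cytotoxicity came from IncuCyte fluorescence imaging (×10, five images per well, hourly over 3 h). Signals were corrected for confluency, then normalised to mean DMSO controls.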
# [3] = tested on: Jurkat; test: metabolic activity relative to DMSO, 18 h (ratio); higher = more viable
# Method in brief: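 Metabolic activity values are normalised to the average of vehicle control wells. They come from Jurkat or primary CD4+/CD8+ T cells (naive, or activated 48 h with CD3/CD28 Dynabeads) treated for 18 h at 37 °C, 5% CO2 with compound over 1 nM–10 µM in log10 steps. Then 100 µl of each suspension was mixed in 96-well plates with alamarBlue (10% v/v final), and fluorescence at 544 nm excitation and 584 nm emission was recorded on a FluoStar Omega 3.5 h later.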
SMILES,confluency ([1]; 1 nM),confluency ([1]; 10 nM),confluency ([1]; 100 nM),confluency ([1]; 1000 nM),confluency ([1]; 10000 nM),cytotoxicity ([2]; 1 nM),cytotoxicity ([2]; 10 nM),cytotoxicity ([2]; 100 nM),cytotoxicity ([2]; 1000 nM),cytotoxicity ([2]; 10000 nM),metabolic activity ([3]; 1 nM),metabolic activity ([3]; 10 nM),metabolic activity ([3]; 100 nM),metabolic activity ([3]; 1000 nM),metabolic activity ([3]; 10000 nM)
CCCCN(Cc1ccc(C(=O)NO)cc1)C(=O)Nc1ccccc1 [Nexturastat A],0.989,0.978,0.98,0.935,0.989,1.05,1.15,1.07,0.955,0.92,1.05,1.15,1.1,1.02,0.66
COC(=O)c1ccc2c(C(=Nc3ccc(N(C)C(=O)CN4CCN(C)CC4)cc3)c3ccccc3)c(O)[nH]c2c1 [Nintedanib],0.986,0.955,0.981,0.832,0.566,0.929,0.948,0.988,0.81,0.537,1.01,0.93,0.949,0.919,0.827
NC(=O)c1cccc2cn(-c3ccc(C4CCCNC4)cc3)nc12 (stereo not given) [Niraparib],1.07,1.04,1.06,1.05,0.915,1.11,1.01,1.1,1.03,0.94,0.947,0.907,1.17,0.992,1.01
COC(=O)Nc1nc2ccc(C(=O)c3cccs3)cc2[nH]1 [Nocodazole],1.02,1.06,1.14,0.907,0.731,1.03,1.08,1.02,0.807,0.59,0.881,1.08,0.621,0.589,0.554
COc1ccc(C2=NC(c3ccc(Cl)cc3)C(c3ccc(Cl)cc3)N2C(=O)N2CCNC(=O)C2)c(OC(C)C)c1 (stereo not given) [Nutlin-3],0.971,0.92,1.01,0.98,0.963,0.993,0.951,0.962,0.985,0.917,0.983,1.01,1.02,0.991,0.84
O=C(c1cc(Cc2n[nH]c(=O)c3ccccc23)ccc1F)N1CCN(C(=O)C2CC2)CC1 [Olaparib],0.954,1.02,0.974,0.975,0.969,0.942,1.03,1,1.01,0.977,1.08,1.09,0.911,0.899,1
COc1ncc(-c2ccc3nccc(-c4ccnnc4)c3c2)cc1NS(=O)(=O)c1ccc(F)cc1F [Omipalisib],0.98,0.797,0.785,0.904,1.12,1.04,0.823,0.728,0.735,0.923,1.1,0.966,0.621,0.524,0.563
Nc1nc2cc(CCC3CC(n4ccc5c(N)ncnc54)C(O)C3O)ccc2cc1Br (stereo not given) [Onametostat],0.916,0.951,0.973,0.978,0.985,0.949,0.883,0.975,0.884,0.982,1.01,0.982,1.07,0.979,0.975
COC1CCC(N2C(=O)CNc3ncc(-c4ccc(C(C)(C)O)nc4)nc32)CC1 (stereo not given) [Onatasertib],1.12,1.05,1.07,0.9,0.675,1.12,1.07,1.11,0.859,0.586,0.857,0.964,0.935,0.881,0.73
O=C(O)C(=O)O.[NH-]C1CCCCC1[NH-].[Pt+2] (stereo not given) [Oxaliplatin],0.84,0.755,1.01,0.989,0.969,0.835,0.765,1.05,1.04,1.1,0.909,0.865,0.936,0.884,0.991
CN(C)CC(=O)Nc1ccc2[nH]c(=O)c3ccccc3c2c1 [PJ34],0.971,0.933,0.94,0.99,0.968,0.966,0.947,0.963,0.932,1.17,0.99,1.03,1.04,0.955,1.12
CC(=O)OC1C(=O)C2(C)C(O)CC3OCC3(OC(C)=O)C2C(OC(=O)c2ccccc2)C2(O)CC(OC(=O)C(O)C(NC(=O)c3ccccc3)c3ccccc3)C(C)=C1C2(C)C (stereo not given) [Paclitaxel],1,0.989,0.964,0.939,0.81,1.16,0.953,0.883,0.854,0.797,1.05,0.568,0.576,0.534,0.744
CC(=O)c1c(C)c2cnc(Nc3ccc(N4CCNCC4)cn3)nc2n(C2CCCC2)c1=O [Palbociclib],0.829,0.902,0.974,1.04,0.813,0.851,0.93,0.95,1.03,0.793,0.877,0.988,0.96,0.995,0.88
Nc1nc2[nH]cc(CCc3ccc(C(=O)NC(CCC(=O)O)C(=O)O)cc3)c2c(=O)[nH]1 (stereo not given) [Pemetrexed],1,0.962,0.845,0.839,0.835,0.992,0.997,0.837,0.821,0.75,1.02,1.11,1.06,1.09,0.853
CC(=O)N1CCC(Nc2cc(C(=O)NCC(O)CN3CCc4ccccc4C3)ncn2)CC1 (stereo not given) [Pemrametostat],1.05,1.06,1.01,1.03,0.947,1.07,1.09,1.06,1.05,1.05,0.952,0.904,0.931,0.95,1.2
